What was measured:
CYP2C8 [1] = target: T1, CYP2C8 (Homo sapiens, UniProt P10632); design: Estimation of CYP2C8 Half-Life Using Repaglinide as an in Vivo Probe; host or cells: in vivo (subjects of the cited studies); conditions: cited from earlier work
T1 sequence (P10632 1-490): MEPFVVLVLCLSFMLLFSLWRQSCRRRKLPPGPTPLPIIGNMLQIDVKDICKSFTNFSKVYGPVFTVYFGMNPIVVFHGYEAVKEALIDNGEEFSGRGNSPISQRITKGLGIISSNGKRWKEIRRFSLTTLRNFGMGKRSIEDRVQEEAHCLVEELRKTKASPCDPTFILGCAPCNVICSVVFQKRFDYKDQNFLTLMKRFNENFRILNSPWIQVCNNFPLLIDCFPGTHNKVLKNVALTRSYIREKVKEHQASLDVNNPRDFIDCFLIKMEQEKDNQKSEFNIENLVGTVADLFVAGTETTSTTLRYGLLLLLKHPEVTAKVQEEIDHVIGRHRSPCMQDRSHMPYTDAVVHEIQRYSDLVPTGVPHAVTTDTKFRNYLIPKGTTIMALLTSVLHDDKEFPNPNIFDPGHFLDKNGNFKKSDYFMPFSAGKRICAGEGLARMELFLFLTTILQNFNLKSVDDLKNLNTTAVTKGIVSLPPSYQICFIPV

CYP2C8 [2] = target: T1, CYP2C8; assay: Effect of single oral gemfibrozil doses on repaglinide AUC, fitted to a mechanistic model of CYP2C8 inhibition; assay type: in vivo; design: The subjects ingested in a cross-over study a small dose (0.25 mg) of repaglinide with different doses of gemfibrozil; from tissue; host or cells: living human subjects (in vivo)
Procedure: The effect of various oral single doses (30 mg, 100 mg, 300 mg and 900 mg) of gemfibrozil on the total plasma exposure, i.e., area under the plasma concentration-time curve (AUC), of a CYP2C8 and OATP1B1 substrate drug (repaglinide) was measured. The mean fold increase in the AUC (AUCi/AUCc) of repaglinide with the different gemfibrozil doses in six human subjects is given in relation to the mean average plasma concentration of gemfibrozil 1-O-β-glucuronide during 10 hours after gemfirozil dosing (Cavg). The subjects ingested in a cross-over study a small dose (0.25 mg) of repaglinide with different doses of gemfibrozil. Venous blood samples were taken at fixed time points up to 10 hours after gemfibrozil dosing, and plasma repaglinide, gemfibrozil and gemfibrozil 1-O-β-glucuronide concentrations were determined using a validated liquid chromatographic-tandem mass spectrometric (LC/MSMS) method. The data were fitted to the following mechanistic model (equation):

CYP2C8 [3] = target: T1, CYP2C8; design: Estimation of CYP2C8 Half-Life Using Repaglinide as an in Vivo Probe; host or cells: in vivo (subjects of the cited studies); conditions: gemfibrozil 600 mg twice daily; Tornio et al 2008; cited from earlier work
[4] = Effects of different gemfibrozil doses on plasma profiles of repaglinide, repaglinide dose adjusted to equal AUC; assay type: in vivo, human; conditions: when the ratio of gemfibrozil (0-900 mg) to repaglinide is increased; repaglinide dose adjusted to same AUC
Procedure: The effects of different doses of gemfibrozil (0 mg, 30 mg, 100 mg, 300 mg and 900 mg) on plasma profiles of repaglinide were measured. The doses of repaglinide were adjusted so that the total exposure to repaglinide (defined as the area under plasma repaglinide concentration-time curve, AUC) is the same in all 5 cases, corresponding to the AUC after a single dose of 0.25 mg repaglinide without gemfibrozil.

effect of small gemfibrozil doses in repeated dosing (CYP2C8 [2]; repeated dosing, gemfibrozil doses <30 mg, due to irreversible inhibition of CYP2C8) | inhibition of the CYP2C8 enzyme (CYP2C8 [2]; single oral dose of 100 mg gemfibrozil, model-based from fold increase in repaglinide (0.25 mg) AUC, six human subjects) [%] | elimination half-life (and effect) of repaglinide [4] | estimated peak concentration of repaglinide [4] | SMILES | inhibitor of CYP2C8 (qualitative) (CYP2C8 [1]) | persistence of the risk of gemfibrozil-related interactions (effect on repaglinide pharmacokinetics) after the dose (CYP2C8 [3])
– | – | – | – | Cc1ccc(C)c(OCCCC(C)(C)C(=O)O[C@@H]2O[C@H](C(=O)O)[C@@H](O)[C@H](O)[C@H]2O)c1 [gemfibrozil 1-O-β-glucuronide] | potent inhibitor and inactivator | –
increased | 90 | – | – | Cc1ccc(C)c(OCCCC(C)(C)C(=O)O)c1 [gemfibrozil, 5-(2,5-dimethylphenoxy)-2,2-dimethyl-pentanoic acid] | relatively weak inhibitor | at Least 12 hours
– | – | prolonged | reduced | CCOc1cc(CC(=O)N[C@@H](CC(C)C)c2ccccc2N2CCCCC2)ccc1C(=O)O [repaglinide] | – | –

Reference: patent US20130040991A1, “PHARMACEUTICAL COMPOSITION COMPRISING GEMFIBROZIL AND CYP2C8 AND/OR OATP SUBSTRATE DRUG SUCH AS REPAGLINIDE” (priority 2010, published 2013)
